molecular target: purified human, His-tagged PRC2 complex (Homo sapiens, UniProt O75530+Q15910); assay: Hot Spot HMT assay: inhibition of PRC2 enzymatic activity (transfer of tritiated methyl from SAM to core histone, filter binding); format: biochemical; settings: Inhibition of PRC2-mediated enzymatic activity; 10 nM PRC2 complex, 0.05 mg/ml core histone H3, 1 uM 3H-SAM, 1 hr at 30°C
Description: The assay uses purified human, His-tagged PRC2 complex, including N-terminal His-tagged EZH2 enzyme, N-terminal Flag-tagged embryonic ectoderm development protein (EED), N-terminal His-tagged suppressor of zeste 12 (SUZ12), N-terminal His-tagged AEBP2, and N-terminal His-tagged RbAp48. In this assay, the transfer of the tritiated methyl group from radiolabeled S-adenosyl methionine (SAM) to purified core histone protein by EZH2 is quantitated after filtration to determine the activity of the core PRC2 complex in the presence and absence of compound.
The initial starting concentration for the serial dilutions of each compound was 1.0 µM. […] SAH (S-(5-adenosyl)-L-homocysteine) was used as a positive control for assay validation.
An aliquot of each serial dilution of test compound was added to deep 384 well plate using Acoustic Technology instrument (Echo 550, LabCyte) containing reaction buffer (50 mM Tris-HCl (pH 8.)), 0.01% Brij35, 1 mM EDTA, 1 mM DTT, 1 mM PMSF and 1% DMSO), 10 nM purified PRC2 complex and 0.05 mg/ml core histone H3 in a 5 µl volume. The reaction was mixed gently and then pre-incubated for 20 min at 30°C. The enzymatic reaction was initiated by adding 1 uM S-Adenosyl-L-[methyl - ^3H]methionine and incubated for 1 hr at 30°C. After 1 hr, the reaction product was detected using a filter binding method and the amount of tritiated H3 core histone was quantitated using a scintillation counter.

Chain of purified human, His-tagged PRC2 complex (Q15910 whole entry): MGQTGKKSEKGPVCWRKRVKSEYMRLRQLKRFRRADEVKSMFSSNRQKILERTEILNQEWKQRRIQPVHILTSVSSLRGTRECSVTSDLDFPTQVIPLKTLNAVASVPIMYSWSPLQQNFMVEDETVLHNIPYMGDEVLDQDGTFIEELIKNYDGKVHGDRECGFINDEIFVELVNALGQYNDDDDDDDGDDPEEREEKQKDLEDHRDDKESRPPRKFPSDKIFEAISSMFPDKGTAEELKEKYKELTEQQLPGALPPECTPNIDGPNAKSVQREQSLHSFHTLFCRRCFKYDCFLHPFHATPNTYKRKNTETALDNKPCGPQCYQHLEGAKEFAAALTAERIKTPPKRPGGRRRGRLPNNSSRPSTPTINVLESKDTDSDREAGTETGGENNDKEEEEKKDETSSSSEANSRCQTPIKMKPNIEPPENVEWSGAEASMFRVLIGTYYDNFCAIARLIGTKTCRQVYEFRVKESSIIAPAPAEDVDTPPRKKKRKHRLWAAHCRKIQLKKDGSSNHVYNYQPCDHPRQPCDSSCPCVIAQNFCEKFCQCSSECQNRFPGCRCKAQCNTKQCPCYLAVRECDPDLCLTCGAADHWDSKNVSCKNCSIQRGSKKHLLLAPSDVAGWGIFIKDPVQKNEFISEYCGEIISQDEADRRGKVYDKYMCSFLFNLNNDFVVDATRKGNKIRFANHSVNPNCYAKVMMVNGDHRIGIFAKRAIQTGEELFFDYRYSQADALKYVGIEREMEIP
Chain of purified human, His-tagged PRC2 complex (O75530 whole entry): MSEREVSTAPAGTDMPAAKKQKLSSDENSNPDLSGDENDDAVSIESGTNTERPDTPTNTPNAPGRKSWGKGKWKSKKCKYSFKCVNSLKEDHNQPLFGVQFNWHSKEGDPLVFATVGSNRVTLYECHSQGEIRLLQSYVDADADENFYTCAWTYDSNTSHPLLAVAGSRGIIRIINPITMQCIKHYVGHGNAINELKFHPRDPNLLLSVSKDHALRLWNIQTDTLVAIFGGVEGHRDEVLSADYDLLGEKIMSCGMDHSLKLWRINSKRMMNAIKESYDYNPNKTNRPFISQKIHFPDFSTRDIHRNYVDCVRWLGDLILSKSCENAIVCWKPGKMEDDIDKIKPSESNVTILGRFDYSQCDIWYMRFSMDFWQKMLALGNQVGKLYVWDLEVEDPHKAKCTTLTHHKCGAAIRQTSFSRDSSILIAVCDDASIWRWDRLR
Chain of purified human, His-tagged PRC2 complex (Q15022 whole entry partner): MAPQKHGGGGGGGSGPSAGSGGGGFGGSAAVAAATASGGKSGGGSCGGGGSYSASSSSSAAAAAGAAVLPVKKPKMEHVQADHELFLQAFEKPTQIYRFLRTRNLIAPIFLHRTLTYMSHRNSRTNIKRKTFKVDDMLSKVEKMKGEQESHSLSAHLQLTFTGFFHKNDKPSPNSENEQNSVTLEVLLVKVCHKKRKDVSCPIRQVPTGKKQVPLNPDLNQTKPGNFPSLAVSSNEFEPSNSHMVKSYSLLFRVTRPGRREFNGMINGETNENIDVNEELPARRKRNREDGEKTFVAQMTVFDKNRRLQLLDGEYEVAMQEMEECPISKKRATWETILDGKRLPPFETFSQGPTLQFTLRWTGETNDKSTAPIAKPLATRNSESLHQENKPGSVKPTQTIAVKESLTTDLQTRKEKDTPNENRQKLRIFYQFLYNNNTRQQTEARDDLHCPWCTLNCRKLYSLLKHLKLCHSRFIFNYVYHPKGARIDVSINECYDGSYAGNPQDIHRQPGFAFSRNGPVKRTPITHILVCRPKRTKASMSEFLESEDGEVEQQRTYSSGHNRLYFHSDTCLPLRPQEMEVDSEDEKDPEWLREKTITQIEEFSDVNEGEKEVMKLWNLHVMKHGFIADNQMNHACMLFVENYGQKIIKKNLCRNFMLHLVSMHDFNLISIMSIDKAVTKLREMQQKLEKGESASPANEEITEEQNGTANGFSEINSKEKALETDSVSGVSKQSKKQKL
Chain of purified human, His-tagged PRC2 complex (Q6ZN18 whole entry partner): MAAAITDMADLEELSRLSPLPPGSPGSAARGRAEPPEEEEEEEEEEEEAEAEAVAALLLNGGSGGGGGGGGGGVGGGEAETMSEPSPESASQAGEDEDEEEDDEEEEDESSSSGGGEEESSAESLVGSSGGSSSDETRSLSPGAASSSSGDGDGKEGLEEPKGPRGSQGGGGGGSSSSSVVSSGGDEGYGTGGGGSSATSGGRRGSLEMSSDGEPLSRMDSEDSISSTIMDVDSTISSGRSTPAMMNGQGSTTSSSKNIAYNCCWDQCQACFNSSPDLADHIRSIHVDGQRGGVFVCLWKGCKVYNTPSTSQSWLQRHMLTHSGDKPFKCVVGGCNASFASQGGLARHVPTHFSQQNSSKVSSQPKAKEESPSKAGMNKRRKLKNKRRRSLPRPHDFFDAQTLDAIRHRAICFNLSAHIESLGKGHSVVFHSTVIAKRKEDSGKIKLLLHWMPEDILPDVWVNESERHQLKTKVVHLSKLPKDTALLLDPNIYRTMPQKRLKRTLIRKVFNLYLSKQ
Chain of purified human, His-tagged PRC2 complex (Q09028 whole entry partner): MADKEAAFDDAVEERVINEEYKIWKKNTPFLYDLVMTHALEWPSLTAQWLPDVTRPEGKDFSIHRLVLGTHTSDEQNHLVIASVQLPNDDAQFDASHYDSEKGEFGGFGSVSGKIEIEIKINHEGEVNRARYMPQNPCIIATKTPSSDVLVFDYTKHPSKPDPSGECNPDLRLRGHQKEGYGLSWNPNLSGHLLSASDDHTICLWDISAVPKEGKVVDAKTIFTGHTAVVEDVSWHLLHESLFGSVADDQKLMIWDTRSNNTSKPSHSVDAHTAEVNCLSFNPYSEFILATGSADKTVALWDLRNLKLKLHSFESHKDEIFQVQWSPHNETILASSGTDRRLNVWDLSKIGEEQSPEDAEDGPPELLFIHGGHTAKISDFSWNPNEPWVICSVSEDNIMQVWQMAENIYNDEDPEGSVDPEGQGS

Row | Structure (SMILES) | IC50 [µM]
1 | Cc1cc(-c2cnc(NCc3cccc4c3CCO4)n3cc(C(=O)O)nc23)n(C)n1 [Example 10, 5-(((2,3-dihydrobenzofuran-4-yl)methyl)amino)-8-(1,3-dimethyl-1H-pyrazol-5-yl)imidazo[1,2-c]pyrimidine-2-carboxylic acid] | < 0.1
2 | Cc1cc(-c2cnc(NCc3c(F)ccc4occc34)n3cc(C(N)=O)nc23)n(C)n1 [Example 18, 8-(1,3-dimethyl-1H-pyrazol-5-yl)-5-(((5-fluorobenzofuran-4-yl)methyl)amino)imidazo[1,2-c]pyrimidine-2-carboxamide] | < 0.1
3 | Cc1nn(C(C)C)cc1-c1cnc(NCc2c(F)ccc3c2CCO3)n2cc(C#N)nc12 [Example 23, 5-(((5-fluoro-2,3-dihydrobenzofuran-4-yl)methyl)amino)-8-(1-isopropyl-3-methyl-1H-pyrazol-4-yl)imidazo[1,2-c]pyrimidine-2-carbonitrile] | 0.1 to 0.5
4 | Cc1nc(C2CC2)ncc1-c1cnc(NCc2c(F)ccc3c2CCO3)n2cc(C(N)=O)nc12 [Example 15, 8-(2-cyclopropyl-4-methylpyrimidin-5-yl)-5-(((5-fluoro-2,3-dihydrobenzofuran-4-yl)methyl)amino)imidazo[1,2-c]pyrimidine-2-carboxamide] | 0.1 to 0.5
5 | Cc1c(-c2cnc(NCc3c(F)ccc4c3CCO4)n3cc(C#N)nc23)cnn1C(C)C [Example 26, 5-(((5-fluoro-2,3-dihydrobenzofuran-4-yl)methyl)amino)-8-(1-isopropyl-5-methyl-1H-pyrazol-4-yl)imidazo[1,2-c]pyrimidine-2-carbonitrile] | 0.1 to 0.5
6 | COc1cc(Cl)c(-c2cnc(NCc3c(F)ccc4c3CCO4)n3cc(C#N)nc23)cn1 [Example 91, 8-(4-chloro-6-methoxypyridin-3-yl)-5-(((5-fluoro-2,3-dihydrobenzofuran-4-yl)methyl)amino)imidazo[1,2-c]pyrimidine-2-carbonitrile] | 0.1 to 0.5
7 | COc1cc(C)c(-c2cnc(NCc3c(F)ccc4c3CCO4)n3cc(C(=O)O)nc23)cn1 [Example 6, 5-(((5-fluoro-2,3-dihydrobenzofuran-4-yl)methyl)amino)-8-(6-methoxy-4-methylpyridin-3-yl)imidazo[1,2-c]pyrimidine-2-carboxylic acid] | 0.1 to 0.5
8 | Cc1cc(-c2cnc(NCc3cccc4c3CCO4)n3cc(C#N)nc23)n(C)n1 [Example 30, 5-(((2,3-dihydrobenzofuran-4-yl)methyl)amino)-8-(1,3-dimethyl-1H-pyrazol-5-yl)imidazo[1,2-c]pyrimidine-2-carbonitrile] | 0.1 to 0.5

Now from value to molecule:

Row | IC50 [µM] | Structure (SMILES)
9 | < 0.1 | COc1cc(-c2cnc(NCc3c(F)ccc4c3CCO4)n3cc(C#N)nc23)c(OC)cn1 [Example 125, 8-(2,5-dimethoxypyridin-4-yl)-5-(((5-fluoro-2,3-dihydrobenzofuran-4-yl)methyl)amino)imidazo[1,2-c]pyrimidine-2-carbonitrile]
10 | 0.1 to 0.5 | CN(C)CCCn1cc(-c2cnc(NCc3c(F)ccc4c3CCO4)n3cc(C#N)nc23)cn1 [Example 103, 8-(1-(3-(dimethylamino)propyl)-1H-pyrazol-4-yl)-5-(((5-fluoro-2,3-dihydrobenzofuran-4-yl)methyl)amino)imidazo[1,2-c]pyrimidine-2-carbonitrile]
11 | < 0.1 | Cc1cc(-c2cnc(NCc3c(F)ccc4c3C(O)CO4)n3cc(C#N)nc23)n(C)n1 (stereo not drawn) [Example 155, 8-(1,3-dimethyl-1H-pyrazol-5-yl)-5-(((5-fluoro-3-hydroxy-2,3-dihydrobenzofuran-4-yl)methyl)amino)imidazo[1,2-c]pyrimidine-2-carbonitrile]
12 | 0.1 to 0.5 | N#Cc1cn2c(NCc3c(F)ccc4c3CCO4)ncc(-c3cnn(C4CCOC4)c3)c2n1 (stereo not drawn) [Example 107, 5-(((5-fluoro-2,3-dihydrobenzofuran-4-yl)methyl)amino)-8-(1-(tetrahydrofuran-3-yl)-1H-pyrazol-4-yl)imidazo[1,2-c]pyrimidine-2-carbonitrile]
